Data set [1] has as its target HIV-1 92UG037.8 Env (Human immunodeficiency virus type 1, UniProt Q70200). It counts as cell-based.
Data set [2] has as its system 293T cells.
The subject of data set [3] is HIV-1 Env pseudoviruses. It counts as cell-based.
Data set [4] concerns Envs from HIV-1 primary isolates of clade A, B, C and AG. It counts as cell-based.
Data set [5] deals with SIVmac251.30 Env. It counts as cell-based, SIV.
Data set [6] relates to 2F5 Fab. The class given is binding.
The test system of data set [7] is TZM.bl cells.

Take `Cc1cc(N)c2ccccc2n1` [4-aminoquinaldine]: the “inhibition activity/potency in the HIV-1 Env cell-cell fusion assay (in words)” value in data set [1] is recorded as “no activity”.
Regarding `Cc1cc(N)c2ccccc2[n+]1CCCCCCCCCC[n+]1c(C)cc(N)c2ccccc21` [dequalinium, quinolinium,1,1’-(1,10-decanediyl)-bis(4-amino-2-methyldiiodide)], in data set [2], the “cytotoxicity by an assay measuring ATP concentration” value was “minimal level of cytotoxicity”. Further, the “inhibition of HIV-1 infectivity versus MuLV negative control” value in data set [3] is given as “much greater inhibition”. The “inhibition of cell-cell fusion mediated by Envs of multiple primary HIV-1 isolates” value in data set [4] is given as “specifically inhibited”. Also, in data set [5], the “inhibition of cell-cell fusion mediated by SIV Env, high expression level” value is “resistant” and the “inhibition of cell-cell fusion mediated by SIV Env, low expression level” value is recorded as “inhibited”. Also, the “binding to 2F5 Fab by SPR (in words)” value in data set [6] is given as “no binding”. The “cytotoxicity in TZM.bl cells” value in data set [7] is given as “more cytotoxicity than in the cell-cell fusion assay”.

These data come from paper PMC7723321 (Nature chemical biology, 2020).
